Paper PMC11396746, “Stability Evaluation and Pharmacokinetic Profiling of Vepdegestrant in Rodents Using Liquid Chromatography–Tandem Mass Spectrometry” (Molecules, 2024)

Tests used:
[1] = Stability of vepdegestrant in rat plasma under storage conditions (method validation); assay type: in vitro ADME
Procedure: The results were within ±15% RE under all storage conditions, including at room temperature for 6 h, after three freeze–thaw cycles, at −20 °C for 4 weeks, and in an autosampler for 24 h after sample preparation.
Stability was tested for vepdegestrant in biological samples at LQC and HQC under specific conditions: Short-term stability at room temperature for 6 h, three freeze–thaw cycles, long-term stability at −20 °C for 4 weeks, and pretreated samples in an autosampler for 24 h. The stability test was performed via five replicates analysis, with the acceptance criteria being an RE within ±15% at LQC and HQC levels.

[2] = pH stability in buffer solutions (pH 2-10) and PBS pH 7.4; assay type: physicochemical; conditions: for vepdegestrant remaining: 2 h, 0.1 µg/mL
Procedure: The physicochemical stability of vepdegestrant was determined using various pH buffers (pH 2.0–10.0) and plasma and microsomes.
A solution of vepdegestrant in methanol (10 µL) was added to buffer solutions at pH 2, 4, 6, 8, and 10 or pH 7.4 PBS (490 µL), yielding a final concentration of 0.1 µg/mL, and incubated at 37 °C, with 100 rpm in a water bath. At 0, 0.5, 1, and 2 h post-incubation, the incubation mixture (50 µL) was transferred to microtubes containing ice-cold ACN solution (200 µL) with IS to terminate the reaction. The mixture was vortexed thoroughly for 10 min. Subsequently, the supernatant (100 µL) was taken, and 5 µL was injected for HPLC-MS/MS analysis.

[3] = Adsorption investigation after pH stability test (microtube emptied, ACN added, vepdegestrant recovered); assay type: physicochemical
Procedure: The half-lives of vepdegestrant at pH values of 2, 4, 6, 7.4, 8, and 10 were 7.35, 0.77, 0.40, 0.50, 0.38, and 0.60 h, respectively. Sun et al. reported that the thalidomide ligand, a cereblon-targeting moiety of PROTAC, was rapidly degraded in phosphate-buffered saline (PBS; pH 7.4). The binder in vepdegestrant contained lenalidomide, a CRBN ligand with a chemical structure similar to that of thalidomide. In addition, Chen et al. reported that the glutarimide ring of lenalidomide is cleaved and degraded through non-enzymatic hydrolysis in aqueous solutions and hepatocytes at physiological pH [24]. However, this instability might be attributed to the adsorption of vepdegestrant onto the surfaces of experimental containers such as microtubes. A high proportion of organic solvent can prevent vepdegestrant from binding to the sample vial surface, and the possibility of adsorption exists because a buffer solution was used in this study. To investigate adsorption, after the pH stability test was completed, the incubation mixture was completely emptied, and ACN was added and thoroughly mixed. LC-MS/MS analysis includes MRM transitions for the expected hydrolysis product i.e., m/z 742.3 → 356.3, to detect the presence of degradation products. […] In contrast, hydrolysis may play a significant role at pH 10. Based on these findings, future studies should consider the selection of container materials and the use of organic solvents to minimize vepdegestrant adsorption.

[4] = Plasma stability at 4, 25 and 37 °C; assay type: in vitro ADME; conditions: mouse and rat plasma at 4, 25 and 37 °C, 4 h incubation, 0.1 µg/mL
Procedure: Plasma stability of vepdegestrant was investigated in mouse and rat plasma. Vepdegestrant (10 µL) was added to blank mouse or rat plasma (490 µL) to prepare a final concentration of 0.1 µg/mL. The mixtures were incubated at 4, 25, and 37 °C. After 0, 1, and 4 h of incubation, aliquots (50 µL) were added to microtubes containing ice-cold ACN solution with an IS (200 µL) to terminate the reaction. The mixture was vortexed thoroughly for 10 min and centrifuged at 17,054 g under 25 °C for 10 min. Subsequently, the supernatant (100 µL) was taken, and 5 µL was injected for HPLC-MS/MS analysis.

[5] = Metabolic stability in mouse liver microsomes; assay type: in vitro ADME; conditions: 60 min, 1 μM, with NADPH
Procedure: (§1) The metabolic stability of vepdegestrant was evaluated using liver microsomes obtained from mice, rats, dogs, and humans. Vepdegestrant was dissolved in DMSO to prepare a stock solution with a concentration of 0.1 mM. Microsomes (25 µL) were spiked into PBS (440 µL) and pre-incubated for 5 min. After pre-incubation, vepdegestrant stock solution (5 µL) was added, followed by an NADPH regenerating system (27 µL) to initiate the reaction. The composition of the reaction mixture was as follows: Vepdegestrant (final concentration 1 µM), mouse, rat, dog, human liver microsomes (protein concentration: 1 mg/mL), NADPH regenerating system (final concentrations: 1.3 mM NADP^+, 3.3 mM glucose-6-phosphate, 0.4 U/mL glucose-6-phosphate dehydrogenase, and 3.3 mM magnesium chloride), and PBS (pH 7.4). At 5, 15, 30, and 60 min after starting the reaction, aliquots (50 µL) were taken and added to ice-cold ACN with an IS (200 µL) to terminate the reaction. For the zero-time samples, aliquots were taken before adding NADPH. Subsequently, the mixture was vigorously mixed for 10 min and centrifuged at 17,054 g under 25 °C for 10 min. For analysis, 5 µL of the supernatant was injected into the HPLC-MS/MS system. In addition, the stability of vepdegestrant in rat liver microsomes was assessed in the absence of NADPH or NADPH and microsomes (PBS only). […]

[6] = Metabolic stability in human liver microsomes; assay type: in vitro ADME
Procedure: as §1

Stability in Rat Plasma ([1]; 1 month at −20 °C, nominal 3 ng/mL): 98.83 ± 12.58% | Stability in Rat Plasma ([1]; 1 month at −20 °C, nominal 900 ng/mL): 104.3 ± 8.5% | Stability in Rat Plasma ([1]; 6 h at room temperature (25 °C), nominal 3 ng/mL): 100.3 ± 7.1% | Stability in Rat Plasma ([1]; 6 h at room temperature (25 °C), nominal 900 ng/mL): 99.59 ± 4.12% | Stability in Rat Plasma ([1]; Freeze–thaw three-cycle (−20 °C → RT), nominal 3 ng/mL): 98.70 ± 7.09% | Stability in Rat Plasma ([1]; Freeze–thaw three-cycle (−20 °C → RT), nominal 900 ng/mL): 94.98 ± 1.40% | Stability in Rat Plasma ([1]; Processed sample in 10 °C autosampler for 24 h, nominal 3 ng/mL): 99.86 ± 0.84% | Stability in Rat Plasma ([1]; Processed sample in 10 °C autosampler for 24 h, nominal 900 ng/mL): 92.18 ± 6.32% | half-life at 0.1 µg/mL ([2]; PBS pH 7.4, pH 7.4 (PBS), 37 °C): 30 min | half-life at 0.1 µg/mL ([2]; pH 2 buffer solution, pH 2, 37 °C): 441 min | vepdegestrant remaining ([2]; pH 2 buffer, 37 °C): 82.6% | half-life at 0.1 µg/mL ([2]; pH 4 buffer solution, pH 4, 37 °C): 46.2 min | vepdegestrant remaining ([2]; pH 4–10 buffers, 37 °C): 2.25–12.8% | half-life at 0.1 µg/mL ([2]; pH 6 buffer solution, pH 6, 37 °C): 24 min | half-life at 0.1 µg/mL ([2]; pH 8 buffer solution, pH 8, 37 °C): 22.8 min | half-life at 0.1 µg/mL ([2]; pH 10 buffer solution, pH 10, 37 °C): 36 min | recovered vepdegestrant percentage (adsorbed to microtube, recovered with ACN) ([3]; pH 2, after pH stability test): 21.8% | recovered vepdegestrant percentage (adsorbed to microtube, recovered with ACN) ([3]; pH 4, after pH stability test): 108.9% | recovered vepdegestrant percentage (adsorbed to microtube, recovered with ACN) ([3]; pH 6, after pH stability test): 105.1% | recovered vepdegestrant percentage (adsorbed to microtube, recovered with ACN) ([3]; pH 7.4, after pH stability test): 72.6% | recovered vepdegestrant percentage (adsorbed to microtube, recovered with ACN) ([3]; pH 8, after pH stability test): 63.9% | recovered vepdegestrant percentage (adsorbed to microtube, recovered with ACN) ([3]; pH 10, after pH stability test): 27.7% | vepdegestrant remaining in plasma [4]: 86.3–113.5% | remaining percentage of unconverted vepdegestrant [5]: 106% | remaining percentage of unconverted vepdegestrant ([6]; 60 min, 1 μM, with NADPH): 98.3% | half-life at 1 µM ([6]; liver microsomes, pH 7.4): 802 min
SMILES: O=C1CC[C@H](N2Cc3cc(N4CCN(CC5CCN(c6ccc([C@@H]7c8ccc(O)cc8CC[C@@H]7c7ccccc7)cc6)CC5)CC4)ccc3C2=O)C(=O)N1 [vepdegestrant, Vepdegestrant]
